Tests used:
Adenosine receptor A1 [1] = target: T1, Adenosine receptor A1 (Rattus norvegicus, UniProt P25099); assay: Displacement of [3H]CCPA from rat brain cortex adenosine A1 receptor
T1 sequence (P25099 whole entry): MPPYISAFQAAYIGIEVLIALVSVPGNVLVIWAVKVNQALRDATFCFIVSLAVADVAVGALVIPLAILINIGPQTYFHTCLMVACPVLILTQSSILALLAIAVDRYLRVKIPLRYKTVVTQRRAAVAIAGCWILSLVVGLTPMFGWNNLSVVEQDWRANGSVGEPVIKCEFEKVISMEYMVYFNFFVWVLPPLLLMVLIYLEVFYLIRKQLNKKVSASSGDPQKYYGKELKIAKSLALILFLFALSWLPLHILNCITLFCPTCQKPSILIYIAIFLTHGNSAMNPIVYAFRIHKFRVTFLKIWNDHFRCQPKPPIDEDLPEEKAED

Adenosine receptor A1 [2] = target: T2, Adenosine receptor A1 (Homo sapiens, UniProt P30542); assay: Displacement of [3H]CCPA from human adenosine A1 receptor expressed in CHO cells; format: cell-based
T2 sequence (P30542 whole entry): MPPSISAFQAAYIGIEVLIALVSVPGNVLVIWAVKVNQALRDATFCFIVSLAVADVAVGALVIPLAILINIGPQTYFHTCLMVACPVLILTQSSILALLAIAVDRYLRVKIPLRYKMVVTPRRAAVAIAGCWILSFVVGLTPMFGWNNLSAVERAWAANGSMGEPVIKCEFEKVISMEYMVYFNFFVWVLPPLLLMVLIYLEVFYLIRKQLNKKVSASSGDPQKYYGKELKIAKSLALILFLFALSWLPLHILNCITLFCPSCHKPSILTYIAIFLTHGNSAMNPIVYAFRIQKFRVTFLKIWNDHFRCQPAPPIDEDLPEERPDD

Adenosine receptor A2a [3] = target: Adenosine receptor A2a (Homo sapiens, UniProt P29274); assay: Displacement of [3H]MSX-2 from human recombinant adenosine A2A receptor expressed in CHO cells; format: cell-based
Chain of Adenosine receptor A2a (Homo sapiens, UniProt P29274) (P29274 whole entry): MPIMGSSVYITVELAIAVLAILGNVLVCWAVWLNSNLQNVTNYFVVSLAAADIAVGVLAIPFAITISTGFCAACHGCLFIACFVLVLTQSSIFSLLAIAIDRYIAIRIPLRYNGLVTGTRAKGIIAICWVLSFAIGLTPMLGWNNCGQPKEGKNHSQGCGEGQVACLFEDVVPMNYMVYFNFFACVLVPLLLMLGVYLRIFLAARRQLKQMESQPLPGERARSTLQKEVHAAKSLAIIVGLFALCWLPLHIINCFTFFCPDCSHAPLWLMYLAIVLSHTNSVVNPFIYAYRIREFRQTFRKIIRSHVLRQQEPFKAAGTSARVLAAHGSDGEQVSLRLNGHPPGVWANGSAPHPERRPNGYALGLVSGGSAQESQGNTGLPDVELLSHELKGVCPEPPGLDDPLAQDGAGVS

Adenosine receptor A2b [4] = target: T3, Adenosine receptor A2b (Homo sapiens, UniProt P29275); assay: Displacement of [3H]PSB-603 from human recombinant adenosine A2B receptor expressed in CHO cells; format: cell-based
T3 sequence (P29275 whole entry): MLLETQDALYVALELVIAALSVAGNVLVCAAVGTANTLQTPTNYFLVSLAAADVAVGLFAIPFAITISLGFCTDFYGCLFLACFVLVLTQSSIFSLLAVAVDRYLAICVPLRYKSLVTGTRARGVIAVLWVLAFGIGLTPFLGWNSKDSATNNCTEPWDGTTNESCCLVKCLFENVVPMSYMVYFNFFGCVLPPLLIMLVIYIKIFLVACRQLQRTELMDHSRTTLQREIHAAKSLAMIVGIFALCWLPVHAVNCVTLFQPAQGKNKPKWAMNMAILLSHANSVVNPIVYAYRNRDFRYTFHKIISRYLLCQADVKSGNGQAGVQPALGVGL

Adenosine receptor A2a [5] = target: Adenosine receptor A2a (Rattus norvegicus, UniProt P30543); assay: Displacement of [3H]MSX-2 from rat brain striatum adenosine A2A receptor
Chain of Adenosine receptor A2a (Rattus norvegicus, UniProt P30543) (P30543 whole entry): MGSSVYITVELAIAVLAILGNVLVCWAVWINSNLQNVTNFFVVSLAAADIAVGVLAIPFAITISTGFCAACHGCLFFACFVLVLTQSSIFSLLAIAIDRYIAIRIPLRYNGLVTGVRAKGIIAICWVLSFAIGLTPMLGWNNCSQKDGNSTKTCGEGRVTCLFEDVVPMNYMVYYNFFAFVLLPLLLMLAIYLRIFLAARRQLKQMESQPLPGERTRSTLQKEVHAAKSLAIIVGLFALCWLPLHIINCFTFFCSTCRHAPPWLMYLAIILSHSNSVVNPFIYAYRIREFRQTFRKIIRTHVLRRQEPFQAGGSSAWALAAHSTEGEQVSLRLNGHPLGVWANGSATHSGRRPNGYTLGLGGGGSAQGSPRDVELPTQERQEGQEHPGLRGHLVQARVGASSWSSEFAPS

Adenosine receptor A3 = target: T4, Adenosine receptor A3 (Homo sapiens, UniProt P0DMS8); assay: Displacement of [3H]PSB-11 from human recombinant adenosine A3 receptor expressed in CHO cells; format: cell-based
T4 sequence (P0DMS8 whole entry): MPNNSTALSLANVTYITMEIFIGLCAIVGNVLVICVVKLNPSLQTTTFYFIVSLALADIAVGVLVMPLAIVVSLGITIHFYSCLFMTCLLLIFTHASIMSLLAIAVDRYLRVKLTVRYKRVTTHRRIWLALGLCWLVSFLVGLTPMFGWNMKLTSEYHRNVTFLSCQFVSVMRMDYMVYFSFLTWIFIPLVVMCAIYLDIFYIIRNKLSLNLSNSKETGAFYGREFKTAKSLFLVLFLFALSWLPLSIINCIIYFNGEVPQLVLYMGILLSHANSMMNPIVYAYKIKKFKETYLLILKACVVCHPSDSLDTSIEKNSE

[6] = target: T5, Adenosine receptor A3 (Homo sapiens) (UniProt P0DMS8); assay: Displacement of [3H]PSB-11 from human recombinant adenosine A3 receptor expressed in CHO cells at 10 uM; format: cell-based
T5 sequence (whole entry): T4 sequence (P0DMS8 whole entry)

[7] = target: T6, Adenosine receptor A1 (Homo sapiens) (UniProt P30542); assay: Displacement of [3H]CCPA from human recombinant adenosine A1 receptor expressed in CHO cells at 10 uM; format: cell-based
T6 sequence (whole entry): T2 sequence (P30542 whole entry)

Adenosine receptor A2b [8] = target: T3, Adenosine receptor A2b; assay: Antagonist activity at adenosine A2B receptor in human Jurkat T cells assessed as inhibition of NECA-induced increase in intracellular calcium concentration by fluorimetric measurement in presence of MSX-2; format: functional, cell-based
[9] = target: T5, Adenosine receptor A3 (Homo sapiens); assay: Displacement of [3H]PSB-11 from human recombinant adenosine A3 receptor expressed in CHO cells at 1 uM; format: cell-based
[10] = target: T7, Adenosine receptor A1 (Rattus norvegicus) (UniProt P25099); assay: Displacement of [3H]CCPA from rat brain cortex adenosine A1 receptor at 1 uM
T7 sequence (whole entry): T1 sequence (P25099 whole entry)

Homo sapiens = species: Homo sapiens; assay: Selectivity ratio of Ki for human adenosine A1 receptor to Ki for human adenosine A2B receptor
Adenosine receptor A2b [11] = target: T3, Adenosine receptor A2b
Description: Binding affinity to human adenosine A2B receptor

Row | Ki (Adenosine receptor A1 [1]) | Ki (Adenosine receptor A1 [2]) | Ki (Adenosine receptor A2a [3]) | Ki (Adenosine receptor A2b [4]) | Ki (Adenosine receptor A2a [5]) | Ki (Adenosine receptor A3) | inhibition [6] | inhibition [7] | IC50 (Adenosine receptor A2b [8]) | inhibition [9] | inhibition [10] | Ratio Ki (Homo sapiens) | Kd (Adenosine receptor A2b [11]) | SMILES
1 | 38.5 nM | 1170 nM | 94.5 nM | 3.03 nM | 136 nM | 2080 nM | – | – | – | – | – | – | – | CCCn1c(=O)[nH]c2nc(-c3ccc(S(=O)(=O)NC4CCN(Cc5ccccc5)CC4)cc3)[nH]c2c1=O
2 | – | 2300 nM | 278 nM | 0.446 nM | – | > 1000 nM | – | – | 3.23 nM | 32% | – | – | – | CCCn1c(=O)[nH]c2nc(-c3ccc(S(=O)(=O)N4CCN(Cc5cccc(F)c5)CC4)cc3)[nH]c2c1=O
3 | – | 443 nM | 112 nM | 1.06 nM | – | 17600 nM | – | – | 23.4 nM | – | – | – | – | CCCn1c(=O)[nH]c2nc(-c3ccc(S(=O)(=O)N4CCN(Cc5ccc6c(c5)OCO6)CC4)cc3)[nH]c2c1=O
4 | > 1000 nM | > 10000 nM | 22.7 nM | 0.157 nM | 122 nM | > 10000 nM | 13% | 25% | – | – | 14% | > 60000 | – | CCn1c(=O)[nH]c2nc(-c3ccc(S(=O)(=O)N4CCN(Cc5ccc(C(F)(F)F)cc5)CC4)cc3)[nH]c2c1=O
5 | 564 nM | 2300 nM | 69.4 nM | 0.281 nM | 635 nM | > 10000 nM | 38% | – | 2.29 nM | – | – | – | – | CCn1c(=O)[nH]c2nc(-c3ccc(S(=O)(=O)N4CCN(Cc5cccc(C(F)(F)F)c5)CC4)cc3)[nH]c2c1=O
6 | > 1000 nM | – | – | 11.7 nM | 367 nM | > 1000 nM | – | – | – | – | 30% | – | – | CCn1c(=O)[nH]c2nc(-c3ccc(S(=O)(=O)N4CCN(c5ccc(OC)cc5)CC4)cc3)[nH]c2c1=O
7 | 1440 nM | – | – | 0.473 nM | 198 nM | > 1000 nM | – | – | – | 35% | – | – | – | C#CCn1c(=O)[nH]c2nc(-c3ccc(S(=O)(=O)N4CCN(c5ccc(Cl)cc5)CC4)cc3)[nH]c2c1=O
8 | 354 nM | 3800 nM | 236 nM | 1.19 nM | 914 nM | > 1000 nM | – | – | 5.26 nM | 29% | – | – | – | CCn1c(=O)[nH]c2nc(-c3ccc(S(=O)(=O)N4CCN(Cc5ccc(OC)cc5)CC4)cc3)[nH]c2c1=O
9 | 33.8 nM | – | – | 0.595 nM | 194 nM | 758 nM | – | – | – | – | – | – | – | CCCn1c(=O)[nH]c2nc(-c3ccc(S(=O)(=O)N4CCN(Cc5ccc(F)cc5)CC4)cc3)[nH]c2c1=O
10 | – | – | – | 1.33 nM | – | – | – | – | – | – | – | – | – | CCCn1c(=O)[nH]c2nc(-c3ccc(S(=O)(=O)N4CCN(Cc5ccccc5)CC4)cc3)[nH]c2c1=O
11 | – | – | – | – | – | – | – | – | – | – | – | – | 60 nM | [3H]C([3H])([3H])C([3H])([3H])Cn1c(=O)c2[nH]c(-c3ccc(OCC(=O)NCCO)cc3)cc2n(C)c1=O
12 | 272 nM | > 10000 nM | 102 nM | 0.875 nM | 436 nM | > 10000 nM | 27% | 28% | 5.34 nM | – | – | – | – | CCn1c(=O)[nH]c2nc(-c3ccc(S(=O)(=O)N4CCN(Cc5ccc6c(c5)OCO6)CC4)cc3)[nH]c2c1=O
13 | 359 nM | 2070 nM | 144 nM | 0.695 nM | 388 nM | 5780 nM | – | – | – | – | – | – | – | CCn1c(=O)[nH]c2nc(-c3ccc(S(=O)(=O)N4CCN(Cc5cccc(F)c5)CC4)cc3)[nH]c2c1=O

Row | SMILES | Ki (Adenosine receptor A1 [1]) | Ki (Adenosine receptor A1 [2]) | Ki (Adenosine receptor A2a [3]) | Ki (Adenosine receptor A2b [4]) | Ki (Adenosine receptor A2a [5]) | Ki (Adenosine receptor A3) | inhibition [6] | inhibition [7] | IC50 (Adenosine receptor A2b [8]) | inhibition [9] | inhibition [10] | Ratio Ki (Homo sapiens) | Kd (Adenosine receptor A2b [11])
14 | CCn1c(=O)[nH]c2nc(-c3ccc(S(=O)(=O)N4CCN(Cc5ccc(Cl)cc5)CC4)cc3)[nH]c2c1=O | 2730 nM | > 10000 nM | 6.49 nM | 0.215 nM | 445 nM | > 10000 nM | 10% | 18% | – | – | – | – | –

Source: ChEMBL document CHEMBL1137016, “1-alkyl-8-(piperazine-1-sulfonyl)phenylxanthines: development and characterization of adenosine A2B receptor antagonists and a new radioligand with subnanomolar affinity and subtype specificity” (J Med Chem, 2009)
